Measured values published in article PMC10482975 (Nature Communications, 2023).
Changes are numbered by the printed parent chain. Where two headings read alike, the source gives them in different places.

Experiments:
M4 mAChR Q184A = biological target: T1, M4 mAChR Q184A (Homo sapiens, UniProt P08173, Q184A); assay: [3H]-NMS radioligand dissociation binding, M4 mAChR Q184A; design: unit not given here
T1 construct: expressed in transfected cells
T1 sequence (P08173 1-479 Q184A): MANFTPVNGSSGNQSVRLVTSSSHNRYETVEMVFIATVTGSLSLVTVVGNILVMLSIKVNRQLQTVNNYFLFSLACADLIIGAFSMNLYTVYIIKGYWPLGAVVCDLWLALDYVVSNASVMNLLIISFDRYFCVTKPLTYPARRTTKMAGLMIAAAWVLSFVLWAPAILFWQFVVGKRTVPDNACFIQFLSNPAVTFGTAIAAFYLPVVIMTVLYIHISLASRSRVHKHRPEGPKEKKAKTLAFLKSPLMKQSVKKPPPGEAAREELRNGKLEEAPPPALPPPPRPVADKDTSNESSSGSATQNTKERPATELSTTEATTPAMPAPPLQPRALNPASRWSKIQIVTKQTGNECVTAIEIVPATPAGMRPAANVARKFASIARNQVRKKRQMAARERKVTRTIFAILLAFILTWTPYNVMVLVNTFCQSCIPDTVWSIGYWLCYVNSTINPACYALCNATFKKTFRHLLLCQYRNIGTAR
Method: (§1) Flp-In Chinese hamster ovary (CHO) (Thermo Fisher Scientific) cells stably expressing mAChR WTs or mutant constructs were cultured in Dulbecco’s modified Eagle’s medium (DMEM, Invitrogen) containing 5% foetal bovine serum (FBS; ThermoTrace) and […] of hygromycin (Roche) in a humidified incubator (37 °C, 5% CO2). Upon reaching confluence, media was removed, cells were washed with phosphate buffered saline (PBS) and harvested from tissue culture flasks using versene (PBS with 0.2 g EDTA). Cells were then pelleted through centrifugation at 350 × g for three minutes followed by resuspension in DMEM + 5% FBS. Cells were then either plated for an assay or reseeded into a tissue culture flask.

M4 mAChR L190F = biological target: T2, M4 mAChR L190F (Homo sapiens, UniProt P08173, L190F); assay: [3H]-NMS radioligand dissociation binding, M4 mAChR L190F; design: unit not given here
T2 construct: expressed in transfected cells
T2 sequence (P08173 1-479 L190F): T1 sequence (P08173 1-479 Q184A) with A184Q, L190F
Method: as §1

M2 mAChR WT = biological target: T3, M2 mAChR WT (Homo sapiens, UniProt P08172); assay: [3H]-NMS radioligand dissociation binding, M2 mAChR WT
T3 construct: expressed in transfected cells
T3 sequence (P08172 1-466): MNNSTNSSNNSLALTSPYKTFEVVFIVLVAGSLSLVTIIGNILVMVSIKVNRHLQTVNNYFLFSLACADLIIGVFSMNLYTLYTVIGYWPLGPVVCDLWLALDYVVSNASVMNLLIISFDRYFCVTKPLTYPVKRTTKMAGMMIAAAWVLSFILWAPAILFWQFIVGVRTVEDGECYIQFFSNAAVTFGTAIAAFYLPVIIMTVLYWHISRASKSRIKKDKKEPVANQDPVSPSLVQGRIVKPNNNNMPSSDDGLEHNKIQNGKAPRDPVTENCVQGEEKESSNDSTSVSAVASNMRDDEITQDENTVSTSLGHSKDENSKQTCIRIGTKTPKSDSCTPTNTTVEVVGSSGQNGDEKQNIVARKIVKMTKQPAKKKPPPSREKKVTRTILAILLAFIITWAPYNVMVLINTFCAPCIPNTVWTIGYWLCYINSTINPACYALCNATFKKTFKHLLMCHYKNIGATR
Method: as §1

M1 mAChR WT = biological target: T4, M1 mAChR WT (Homo sapiens, UniProt P11229); format: binding
T4 construct: expressed in transfected cells
T4 sequence (P11229 1-460): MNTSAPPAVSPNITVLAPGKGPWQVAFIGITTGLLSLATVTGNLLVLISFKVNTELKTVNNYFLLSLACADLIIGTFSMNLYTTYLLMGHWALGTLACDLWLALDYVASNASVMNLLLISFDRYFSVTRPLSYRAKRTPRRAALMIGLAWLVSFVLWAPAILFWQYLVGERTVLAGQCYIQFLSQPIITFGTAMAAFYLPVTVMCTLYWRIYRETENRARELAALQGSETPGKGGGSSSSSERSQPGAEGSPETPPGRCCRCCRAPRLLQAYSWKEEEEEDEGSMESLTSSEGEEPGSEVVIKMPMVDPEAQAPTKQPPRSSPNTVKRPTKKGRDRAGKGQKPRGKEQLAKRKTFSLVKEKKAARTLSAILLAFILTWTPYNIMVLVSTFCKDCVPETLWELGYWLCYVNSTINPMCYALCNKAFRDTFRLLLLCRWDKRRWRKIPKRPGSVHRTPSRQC
Method: as §1

[1] = 10uM Atr + 10 μM Iperoxo, 10 min
[2] = 10uM Atr + 10 μM Iperoxo, 40 min
[3] = 10uM Atr + 10 μM Iperoxo, 60 min
[4] = 10uM Atr + 10 μM Iperoxo, 90 min
[5] = + 10uM LY2033 (Allosteric Ligand), Time 0 min (Total Binding)
[6] = + 10uM LY2033 (Allosteric Ligand), Time 30 min
[7] = + 10uM LY2033 (Allosteric Ligand), Time 60 min
[8] = + 10uM LY2033 (Allosteric Ligand), Time 90 min
[9] = + 10uM LY2033 (Allosteric Ligand), Time 120 min
[10] = + 10uM LY2033 (Allosteric Ligand), Time 180 min
[11] = + 10uM LY2033 (Allosteric Ligand), Time 300 min

Question: What does the source list for `CCCCCCOc1nsnc1C1=CCCN(C)C1` [xanomeline]?
Answer: [3H]-NMS binding remaining vs Total Binding, MEAN (M4 mAChR Q184A; +100uM Xano, Time 30 min): 83.7482; [3H]-NMS binding remaining vs Total Binding, MEAN (M4 mAChR Q184A; +100uM Xano, Time 60 min): 84.3012; [3H]-NMS binding remaining vs Total Binding, MEAN (M4 mAChR Q184A; +100uM Xano, Time 90 min): 69.8323; [3H]-NMS binding remaining vs Total Binding, MEAN (M4 mAChR Q184A; +100uM Xano, Time 120 min): 76.4651; [3H]-NMS binding remaining vs Total Binding, MEAN (M4 mAChR Q184A; +100uM Xano, Time 180 min): 50.1077; [3H]-NMS binding remaining vs Total Binding, MEAN (M4 mAChR Q184A; +100uM Xano, Time 300 min): 18.2224; [3H]-NMS binding remaining vs Total Binding, MEAN (M4 mAChR L190F; +100uM Xano, Time 90 min): 72.792; [3H]-NMS binding remaining vs Total Binding, MEAN (M4 mAChR L190F; +100uM Xano, Time 180 min): 51.0423; [3H]-NMS binding remaining vs Total Binding, MEAN (M4 mAChR L190F; +100uM Xano, Time 300 min): 24.2929; allosteric effect on [3H]-NMS dissociation (in words) (M2 mAChR WT): more pronounced

Question: With `C[N+](C)(C)CC#CCOC1=NOCC1` [iperoxo] as the compound, how does the “[3H]-NMS binding remaining (0 min = 100), MEAN” value (M2 mAChR WT; 10uM Atr + 10 μM Iperoxo, 5 min) read?
Answer: Its value is 84.1199.

Question: What about the “[3H]-NMS binding remaining (0 min = 100), MEAN” value (M2 mAChR WT; [1]) of the same compound?
Answer: The value was 57.067.

Question: And the “[3H]-NMS binding remaining (0 min = 100), MEAN” value (M2 mAChR WT; 10uM Atr + 10 μM Iperoxo, 15 min)?
Answer: Its value is 42.2975.

Question: And the “[3H]-NMS binding remaining (0 min = 100), MEAN” value (M2 mAChR WT; 10uM Atr + 10 μM Iperoxo, 30 min)?
Answer: The value was 18.0197.

Question: And the “[3H]-NMS binding remaining (0 min = 100), MEAN” value (M2 mAChR WT; [2])?
Answer: Its value is 11.4621.

Question: And the “[3H]-NMS binding remaining (0 min = 100), MEAN” value (M2 mAChR WT; [3])?
Answer: The value was 5.852.

Question: And the “[3H]-NMS binding remaining (0 min = 100), MEAN” value (M2 mAChR WT; [4])?
Answer: The value was 5.287.

Question: What about the “[3H]-NMS binding remaining (0 min = 100), MEAN” value (M1 mAChR WT; [1]) of the same compound?
Answer: Its value is 87.0617.

Question: And the “[3H]-NMS binding remaining (0 min = 100), MEAN” value (M1 mAChR WT; 10uM Atr + 10 μM Iperoxo, 20 min)?
Answer: Its value is 66.0557.

Question: And the “[3H]-NMS binding remaining (0 min = 100), MEAN” value (M1 mAChR WT; [2])?
Answer: Its value is 41.8921.

Question: And the “[3H]-NMS binding remaining (0 min = 100), MEAN” value (M1 mAChR WT; [3])?
Answer: Its value is 27.7899.

Question: What about the “[3H]-NMS binding remaining (0 min = 100), MEAN” value (M1 mAChR WT; [4]) of the same compound?
Answer: Its value is 20.387.

Question: And the “[3H]-NMS binding remaining (0 min = 100), MEAN” value (M1 mAChR WT; 10uM Atr + 10 μM Iperoxo, 120 min)?
Answer: Its value is 14.5109.

Question: What does the source list for `COc1nc2sc(C(=O)NC3CC3)c(N)c2c(C)c1Cl` [LY2033298]?
Answer: [3H]-NMS binding remaining vs Total Binding, MEAN (M4 mAChR Q184A; [5]): 100; [3H]-NMS binding remaining vs Total Binding, MEAN (M4 mAChR Q184A; [6]): 89.0052; [3H]-NMS binding remaining vs Total Binding, MEAN (M4 mAChR Q184A; [7]): 100.674; [3H]-NMS binding remaining vs Total Binding, MEAN (M4 mAChR Q184A; [8]): 109.408; [3H]-NMS binding remaining vs Total Binding, MEAN (M4 mAChR Q184A; [9]): 91.4218; [3H]-NMS binding remaining vs Total Binding, MEAN (M4 mAChR Q184A; [10]): 88.0443; [3H]-NMS binding remaining vs Total Binding, MEAN (M4 mAChR Q184A; [11]): 76.9832; [3H]-NMS binding remaining vs Total Binding, MEAN (M4 mAChR L190F; [5]): 100; [3H]-NMS binding remaining vs Total Binding, MEAN (M4 mAChR L190F; [6]): 104.676; [3H]-NMS binding remaining vs Total Binding, MEAN (M4 mAChR L190F; [7]): 101.661; [3H]-NMS binding remaining vs Total Binding, MEAN (M4 mAChR L190F; [8]): 96.3234; [3H]-NMS binding remaining vs Total Binding, MEAN (M4 mAChR L190F; [9]): 92.5099; [3H]-NMS binding remaining vs Total Binding, MEAN (M4 mAChR L190F; [10]): 89.5439; [3H]-NMS binding remaining vs Total Binding, MEAN (M4 mAChR L190F; [11]): 70.7364; [3H]-NMS binding remaining (0 min = 100), MEAN (M2 mAChR WT; 10uM Atr + 30uM LY2033, 5 min): 100.231; [3H]-NMS binding remaining (0 min = 100), MEAN (M2 mAChR WT; 10uM Atr + 30uM LY2033, 10 min): 104.86; [3H]-NMS binding remaining (0 min = 100), MEAN (M2 mAChR WT; 10uM Atr + 30uM LY2033, 15 min): 105.465; [3H]-NMS binding remaining (0 min = 100), MEAN (M2 mAChR WT; 10uM Atr + 30uM LY2033, 30 min): 97.2904; [3H]-NMS binding remaining (0 min = 100), MEAN (M2 mAChR WT; 10uM Atr + 30uM LY2033, 40 min): 99.7247; [3H]-NMS binding remaining (0 min = 100), MEAN (M2 mAChR WT; 10uM Atr + 30uM LY2033, 60 min): 83.2953; [3H]-NMS binding remaining (0 min = 100), MEAN (M2 mAChR WT; 10uM Atr + 30uM LY2033, 90 min): 74.9771; [3H]-NMS binding remaining (0 min = 100), MEAN (M1 mAChR WT; 10uM Atr + 30uM LY2033, 10 min): 100.177; [3H]-NMS binding remaining (0 min = 100), MEAN (M1 mAChR WT; 10uM Atr + 30uM LY2033, 20 min): 95.7624; [3H]-NMS binding remaining (0 min = 100), MEAN (M1 mAChR WT; 10uM Atr + 30uM LY2033, 40 min): 97.3513; [3H]-NMS binding remaining (0 min = 100), MEAN (M1 mAChR WT; 10uM Atr + 30uM LY2033, 60 min): 85.8605; [3H]-NMS binding remaining (0 min = 100), MEAN (M1 mAChR WT; 10uM Atr + 30uM LY2033, 90 min): 73.8671; [3H]-NMS binding remaining (0 min = 100), MEAN (M1 mAChR WT; 10uM Atr + 30uM LY2033, 120 min): 62.858
